Data reported in US7704995B2 (Exelixis, Inc., priority 2003, dated 2010).

Molecular target: T1, Chk1 (Homo sapiens, UniProt O14757)
T1 construct: purchased Upstate Biotechnology
T1 sequence (O14757 1-476): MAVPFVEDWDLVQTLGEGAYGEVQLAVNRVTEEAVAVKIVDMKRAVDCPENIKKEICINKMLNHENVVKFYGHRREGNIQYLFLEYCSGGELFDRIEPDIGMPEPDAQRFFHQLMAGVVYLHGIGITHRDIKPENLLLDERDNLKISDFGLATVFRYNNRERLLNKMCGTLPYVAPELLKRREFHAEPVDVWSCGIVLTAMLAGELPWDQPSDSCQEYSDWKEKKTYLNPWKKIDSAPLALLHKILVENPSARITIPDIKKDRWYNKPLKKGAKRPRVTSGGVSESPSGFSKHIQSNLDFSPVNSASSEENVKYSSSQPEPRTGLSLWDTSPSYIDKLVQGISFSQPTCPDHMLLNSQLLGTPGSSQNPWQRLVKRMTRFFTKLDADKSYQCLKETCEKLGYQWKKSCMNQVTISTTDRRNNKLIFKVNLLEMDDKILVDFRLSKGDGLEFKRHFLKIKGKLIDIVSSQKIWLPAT
Experiment: Chk1 kinase assay: incorporation of γ-33P ATP into immobilized myelin basic protein
Assay type: biochemical
Conditions: read-out: Chk1 IC50
In short: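 Incorporation of γ-33P into myelin basic protein coated on plates was scintillation-counted after 1 h at room temperature, duplicate points. Unlabeled ATP was 10 μM with 10 nM Chk1, 30 μM with 20 nM Chk2; buffer Hepes pH 7.6, MgCl2, DTT, 1% DMSO. Output IC50, optionally converted to Ki.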

Structure (SMILES) | IC50 [µM]
CNC(=O)c1nc(-c2cccc(C(=O)NCc3c(F)cccc3F)c2)cnc1N [Example 338, 3-amino-6-[3-({[(2,6-difluorophenyl)methyl]amino}carbonyl)phenyl]-N-methylpyrazine-2-carboxamide] | 0.05 to 1
CNC(=O)c1nc(-c2cccc(C(=O)NCc3cc(F)cc(F)c3)c2)cnc1N [Example 339, 3-amino-6-[3-({[(3,5-difluorophenyl)methyl]amino}carbonyl)phenyl]-N-methylpyrazine-2-carboxamide] | < 0.05
CNC(=O)c1nc(-c2cccc(C(=O)NCc3cccc(I)c3)c2)cnc1N [Example 340, 3-amino-6-[3-({[(3-iodophenyl)methyl]amino}carbonyl)phenyl]-N-methylpyrazine-2-carboxamide] | < 0.05
CNC(=O)c1nc(-c2cccc(C(=O)NCc3ccccc3N3CCOCC3)c2)cnc1N [Example 341, 3-amino-N-methyl-6-[3-({[(2-morpholin-4-ylphenyl)methyl]amino}carbonyl)phenyl]pyrazine-2-carboxamide] | 0.05 to 1
CNC(=O)c1nc(-c2cccc(C(=O)NCc3cccc(OCCN4CCOCC4)c3)c2)cnc1N [Example 342, 3-amino-N-methyl-6-(3-{[({3-[(2-morpholin-4-ylethyl)oxy]phenyl}methyl)amino]carbonyl}phenyl)pyrazine-2-carboxamide] | 0.05 to 1
CNC(=O)c1nc(-c2cccc(C(=O)NCc3ccc(N4CCOCC4)cc3)c2)cnc1N [Example 343] | 0.05 to 1
CNC(=O)c1nc(-c2cccc(C(=O)NCc3cccc(N4CCOCC4)c3)c2)cnc1N [Example 344, 3-amino-N-methyl-6-[3-({[(3-morpholin-4-ylphenyl)methyl]amino}carbonyl)phenyl]pyrazine-2-carboxamide] | 1 to 10
CNC(=O)c1nc(-c2cccc(C(=O)NCc3ccc(C(C)C)cc3)c2)cnc1N [Example 345, 3-amino-N-methyl-6-{3-[({[4-(1-methylethyl)phenyl]methyl}amino)carbonyl]phenyl}pyrazine-2-carboxamide] | 0.05 to 1
CNC(=O)c1nc(-c2cccc(CNC(=O)COc3ccc(C(C)C)cc3)c2)cnc1N [Example 346, 3-amino-N-methyl-6-(3-{[({[4-(1-methylethyl)phenyl]oxy}acetyl)amino]methyl}phenyl)pyrazine-2-carboxamide] | 0.05 to 1
CNC(=O)c1nc(-c2cccc(CNC(=O)CSc3ccc(N)cc3)c2)cnc1N [Example 347, 3-amino-6-{3-[({[(4-aminophenyl)thio]acetyl}amino)methyl]phenyl}-N-methylpyrazine-2-carboxamide] | 0.05 to 1
CNC(=O)c1nc(-c2ccc(OC)c(C(=O)NCc3ccccc3)c2)cnc1N [Example 348, 3-amino-N-methyl-6-(4-(methyloxy)-3-{[(phenylmethyl)amino]carbonyl}phenyl)pyrazine-2-carboxamide] | 0.05 to 1
CNC(=O)c1nc(-c2cncc(C(=O)NCc3ccccc3)c2)cnc1N [Example 349, 3-amino-N-methyl-6-(5-{[(phenylmethyl)amino]carbonyl}pyridin-3-yl)pyrazine-2-carboxamide] | 0.05 to 1
CNC(=O)c1nc(-c2cccc(CNC(=O)c3ccc(I)cc3)c2)cnc1N [Example 350, 3-amino-6-[3-({[(4-iodophenyl)carbonyl]amino}methyl)phenyl]-N-methylpyrazine-2-carboxamide] | < 0.05
CCCCCc1ccc(C(=O)NCc2cccc(-c3cnc(N)c(C(=O)NC)n3)c2)cc1 [Example 351, 3-amino-N-methyl-6-[3-({[(4-pentylphenyl)carbonyl]amino}methyl)phenyl]pyrazine-2-carboxamide] | 0.05 to 1
CNC(=O)c1nc(-c2cccc(CNC(=O)c3ccc4c(c3)OCO4)c2)cnc1N [Example 352, 3-amino-6-(3-{[(1,3-benzodioxol-5-ylcarbonyl)amino]methyl}phenyl)-N-methylpyrazine-2-carboxamide] | 0.05 to 1
CNC(=O)c1nc(-c2cccc(CNC(=O)C3CCN(c4ncc(C(F)(F)F)cn4)CC3)c2)cnc1N [Example 354, 3-amino-N-methyl-6-(3-{[({1-[5-(trifluoromethyl)pyrimidin-2-yl]piperidin-4-yl}carbonyl)amino]methyl}phenyl)pyrazine-2-carboxamide] | 0.05 to 1
CNC(=O)c1nc(-c2cccc(C(=O)NCc3ccccc3N3CCCCC3)c2)cnc1N [Example 355, 3-amino-N-methyl-6-[3-({[(2-piperidin-1-ylphenyl)methyl]amino}carbonyl)phenyl]pyrazine-2-carboxamide] | 0.05 to 1
CNC(=O)c1nc(-c2cccc(C(=O)NCc3ccccc3SC)c2)cnc1N [Example 356, 3-amino-N-methyl-6-{3-[({[2-(methylthio)phenyl]methyl}amino)carbonyl]phenyl}pyrazine-2-carboxamide] | < 0.05

Continued, values first:

IC50 [µM] | Structure (SMILES)
1 to 10 | CNC(=O)c1nc(-c2cccc(C(=O)N[C@@H]3CCN(C(=O)OC(C)(C)C)C3)c2)cnc1N [Example 357, 1,1-dimethylethyl (3R)-3-{[(3-{5-amino-6-[(methylamino)carbonyl]pyrazin-2-yl}phenyl)carbonyl]amino}pyrrolidine-1-carboxylate]
1 to 10 | CNC(=O)c1nc(-c2cccc(C(=O)N[C@@H]3CCNC3)c2)cnc1N [Example 358, 3-amino-N-methyl-6-(3-{[(3R)-pyrrolidin-3-ylamino]carbonyl}phenyl)pyrazine-2-carboxamide]
0.05 to 1 | CNC(=O)c1nc(-c2cccc(C(=O)N[C@@H]3CCN(Cc4ccc(Cl)cc4)C3)c2)cnc1NCc1ccc(Cl)cc1 [Example 359, 3-{[(4-chlorophenyl)methyl]amino}-6-{3-[({(3R)-1-[(4-chlorophenyl)methyl]pyrrolidin-3-yl}amino)carbonyl]phenyl}-N-methylpyrazine-2-carboxamide]
0.05 to 1 | CNC(=O)c1nc(-c2cccc(C(=O)N[C@@H]3CCN(Cc4ccc(Cl)cc4Cl)C3)c2)cnc1N [Example 360, 3-amino-6-{3-[({(3R)-1-[(2,4-dichlorophenyl)methyl]pyrrolidin-3-yl}amino)carbonyl]phenyl}-N-methylpyrazine-2-carboxamide]
0.05 to 1 | CNC(=O)c1nc(-c2cccc(C(=O)N[C@@H]3CCN(Cc4cccc(OC)c4)C3)c2)cnc1NCc1cccc(OC)c1 [Example 361, N-methyl-3-({[3-(methyloxy)phenyl]methyl}amino)-6-(3-{[((3R)-1-{[3-(methyloxy)phenyl]methyl}pyrrolidin-3-yl)amino]carbonyl}phenyl)pyrazine-2-carboxamide]
0.05 to 1 | CNC(=O)c1nc(-c2cccc(C(=O)N[C@@H]3CCN(Cc4c(Cl)cccc4Cl)C3)c2)cnc1N [Example 362, 3-amino-6-{3-[({(3R)-1-[(2,6-dichlorophenyl)methyl]pyrrolidin-3-yl}amino)carbonyl]phenyl}-N-methylpyrazine-2-carboxamide]
0.05 to 1 | CNC(=O)c1nc(-c2cccc(C(=O)N[C@@H]3CCN(Cc4ccccc4)C3)c2)cnc1NCc1ccccc1 [Example 363, N-methyl-3-[(phenylmethyl)amino]-6-[3-({[(3R)-1-(phenylmethyl)pyrrolidin-3-yl]amino}carbonyl)phenyl]pyrazine-2-carboxamide]
0.05 to 1 | CNC(=O)c1nc(-c2cccc(C(=O)NCC3CCN(C(=O)OC(C)(C)C)C3)c2)cnc1N (centres unmarked) [Example 364, 1,1-dimethylethyl 3-({[(3-{5-amino-6-[(methylamino)carbonyl]pyrazin-2-yl}phenyl)carbonyl]amino}methyl)pyrrolidine-1-carboxylate]
1 to 10 | CNC(=O)c1nc(-c2cccc(C(=O)NCC3CCCN3C(=O)OC(C)(C)C)c2)cnc1N (centres unmarked) [Example 365, 1,1-dimethylethyl 2-({[(3-{5-amino-6-[(methylamino)carbonyl]pyrazin-2-yl}phenyl)carbonyl]amino}methyl)pyrrolidine-1-carboxylate]
0.05 to 1 | CNC(=O)c1nc(-c2cccc(C(=O)NCC3CCNC3)c2)cnc1N (centres unmarked) [Example 366, 3-amino-N-methyl-6-(3-{[(pyrrolidin-3-ylmethyl)amino]carbonyl}phenyl)pyrazine-2-carboxamide]
0.05 to 1 | CNC(=O)c1nc(-c2cccc(C(=O)NCC3CCCN3)c2)cnc1N (centres unmarked) [Example 367, 3-amino-N-methyl-6-(3-{[(pyrrolidin-2-ylmethyl)amino]carbonyl}phenyl)pyrazine-2-carboxamide]
0.05 to 1 | CNC(=O)c1nc(-c2cc(C(=O)NCc3ccccc3)ccc2F)cnc1N [Example 368, 3-amino-6-(2-fluoro-5-{[(phenylmethyl)amino]carbonyl}phenyl)-N-methylpyrazine-2-carboxamide]
0.05 to 1 | CNC(=O)c1nc(-c2cccc(NC(=O)Cc3ccc4c(c3)OCO4)c2)cnc1N [Example 369, 3-amino-6-{3-[(1,3-benzodioxol-5-ylacetyl)amino]phenyl}-N-methylpyrazine-2-carboxamide]
0.05 to 1 | CNC(=O)c1nc(-c2cccc(C(=O)NCc3ccc(F)cc3Cl)c2)cnc1N [Example 370, 3-amino-6-[3-({[(2-chloro-4-fluorophenyl)methyl]amino}carbonyl)phenyl]-N-methylpyrazine-2-carboxamide]
